Source: PubChem BioAssay AID743499 (The Scripps Research Institute Molecular Screening Center, 2014)
Active and inactive are the calls of the source. The rule behind the calls is not given here.

System: Crimean-Congo hemorrhagic fever virus L protein ovarian tumor domain protease (vOTU)
Assay: PubChem AID 743499
Settings: purified CCHFV vOTU, di-Ub K63 fluorescence cleavage, active compounds read high

Compound: O=c1[nH]c(Nc2ccccc2)cc2cc(Br)ccc12
- inhibition (at 1.45 µM): 22%

Compound: COc1cc(NC(=O)COC(=O)c2ccc([N+](=O)[O-])s2)cc(OC)c1OC
- inhibition (at 21.72 µM): 82.2%

Compound: CCc1cc[n+](C2=C(NS(=O)(=O)c3cccs3)C(=O)c3ccccc3C2=O)cc1
- inhibition (at 14.16 µM): 50.9%

Compound: O=C(c1ccco1)[C@@H]1[C@@H]2C(=O)N(c3ccc(Br)cc3)C(=O)[C@@H]2C2c3ccccc3C=CN21 (stereo partly specified)
- inhibition (at 11.01 µM): 59.9%

Compound: Cn1nc(-c2ccccn2)nc2c(=O)n(C)c(=O)nc1-2
- inhibition (at 1.16 µM): 75.7%

Compound: Cc1ccccc1-c1cc2c(nn1)-c1ccccc1C2=O
- inhibition (at 4.5 µM): 14.8% (inactive)

Compound: O=C(NC1=CC(=O)c2ccccc2C1=O)c1ccccc1
- inhibition (at 12.37 µM): 33.4%

Compound: Nc1cc2c(cc1Br)[nH]c(=O)c1ccccc12
- inhibition (at 4.57 µM): 4.29% (inactive)

Compound: CC1CCCC(NC(=O)COC(=O)c2ccc([N+](=O)[O-])s2)C1C (stereo unspecified)
- inhibition (at 31.32 µM): 43.6%

Compound: COc1cc(Br)c(C(=O)c2nccc3cc(OC)c(OC)cc23)cc1OC
- inhibition (at 1.13 µM): 21%

Compound: NS(=O)(=O)c1ccc(NC2=CC(=O)C(=O)c3ccccc32)cc1
- inhibition (at 11.51 µM): 44.4%

Compound: Cc1ccc(N2C(=O)[C@@H]3[C@H](C2=O)C2c4ccccc4C=CN2[C@@H]3C(=O)c2ccco2)cc1 (stereo partly specified)
- inhibition (at 5.2 µM): 31.4%

Compound: CC1(C)C=C2C(=NN(c3ccccc3)C(N)=C2C#N)CO1
- inhibition (at 23.49 µM): 76.2%

Compound: O=C1Cc2ccccc2C(=O)N1CCc1ccccc1
- inhibition (at 3.02 µM): 11.1% (inactive)

Compound: COc1ccccc1NC(=O)COC(=O)c1ccc([N+](=O)[O-])s1
- inhibition (at 35.07 µM): 84.1%

Compound: O=C(OCc1nnc(-c2ccccc2)o1)c1ccc([N+](=O)[O-])s1
- inhibition (at 26.04 µM): 99.5%

Compound: O=C1Cc2ccccc2C(=O)N1Cc1ccccc1
- inhibition (at 1.31 µM): 37.1%

Compound: CN(C1=C(NC(=O)c2ccccc2)C(=O)c2ccccc2C1=O)C1CCS(=O)(=O)C1 (stereo unspecified)
- inhibition (at 19.18 µM): 27.5%

Compound: NC1=C(Cl)C(=O)c2ccc(S(N)(=O)=O)cc2C1=O
- inhibition (at 0.39 µM): 50.5%

Compound: Cc1c(Cl)cnc(NC(=O)COC(=O)c2ccc([N+](=O)[O-])s2)c1Cl
- inhibition (at 20.44 µM): 76.2%

Compound: O=C(COC(=O)c1ccc([N+](=O)[O-])s1)Nc1ncc(C(F)(F)F)cc1Cl
- inhibition (at 27.79 µM): 68.2%

Compound: O=C1Cc2ccccc2C(=O)N1
- inhibition (at 0.6 µM): 39.2%

Compound: O=C(/C=C/c1ccc(O)cc1)c1ccc(NC2=C(N3CCCCC3)C(=O)c3ccccc3C2=O)cc1
- inhibition (at 10.17 µM): 38.1%

Compound: Cc1ccc(NC2=CC(=O)C(=O)c3ccccc32)cc1
- inhibition (at 12.24 µM): 103%

Compound: O=C1C=C(Nc2ccccc2)c2ccccc2C1=O
- inhibition (at 15.55 µM): 89.1%

Compound: CCn1nc(/C=C/c2ccccc2)nc2c(=O)n(C)c(=O)nc1-2
- inhibition (at 0.49 µM): 96.1%

Compound: O=C(COC(=O)c1ccc([N+](=O)[O-])s1)NCc1ccc(F)cc1
- inhibition (at 40.58 µM): 70%

Compound: NS(=O)(=O)c1ccc(NC(=O)COC(=O)c2ccc([N+](=O)[O-])s2)cc1
- inhibition (at 29.01 µM): 94.1%

Compound: COC1=C(N)C(=O)c2nc(C)ccc2C1=O
- inhibition (at 4.98 µM): 53.1%

Compound: CC1COCC(C)N1C1=C(Cl)C(=O)c2ccccc2C1=O (stereo unspecified)
- inhibition (at 14.67 µM): 24.6%

Compound: Cc1ccc2c(c1C)-c1c(ccc(C)c1C)C(=O)C2=O
- inhibition (at 18.9 µM): 55.7%

Compound: COc1ccc2noc3c2c1C(=O)c1ccccc1-3
- inhibition (at 6.28 µM): 27.6%

Compound: CCOC(=O)N=Nc1c2ccccc2c2nc3no[nH]c3nc12
- inhibition (at 7.75 µM): 24.5%

Compound: O=C(COC(=O)c1ccc([N+](=O)[O-])s1)Nc1ccc(F)cc1
- inhibition (at 26.34 µM): 99.5%

Compound: O=C(NC1=C(NC2CCS(=O)(=O)C2)C(=O)c2ccccc2C1=O)c1ccccc1 (stereo unspecified)
- inhibition (at 14.2 µM): 43.9%

Compound: COC(CNC(=O)c1ccc2c3c(onc13)-c1ccccc1C2=O)OC
- inhibition (at 24.19 µM): 46%
